Calls of active or inactive are those of the source. The rule behind the calls is not given here.
What was measured:
Cytotoxicity = assay: NFkB reporter suppression in cystic fibrosis bronchial cells – cell-based, uHTS hits, panel, cytotoxicity readout, dose response (AID 624344); conditions: CF bronchial epithelial cells, mean of runs
[1] = as above; conditions: CF bronchial epithelial cells, PAF-induced NFkB reporter inhibition; with PAF, mean of runs

Structure (SMILES) | IC50 (Cytotoxicity) | IC50 [1]
Nc1nc(N)nc(-c2cc([N+](=O)[O-])ccc2O)n1 | > 79 µM (inactive) | 8.82 µM
O=C(NNc1ccccc1Cl)C(O)(c1cccc(C(F)(F)F)c1)c1cccc(C(F)(F)F)c1 | 7.25 µM | 13.3 µM
CC[C@H](CO)Nc1nc(Nc2cccc(Cl)c2)c2ncn(C(C)C)c2n1 | 8.91 µM | 3.53 µM
CN(C)c1ccc(C(C(=O)NC2CCCCC2)N(Cc2ccco2)C(=O)c2snc(C(N)=O)c2N)cc1 (stereo unspecified) | 9.1 µM | 4.04 µM
COc1cccc(C(=O)N2C(C(C)C)COc3cc(Br)ccc3S2(=O)=O)c1 (stereo unspecified) | 24.7 µM | 12 µM
CC(=O)Oc1c(Cl)cc(N(C(C)=O)S(=O)(=O)c2ccccc2)c2ccccc12 | 8.93 µM | 7.68 µM
C=CCOc1c(OC)cc(/C=N/Nc2cccc(C(=O)O)c2)c(Br)c1Br | 44.5 µM | 15.3 µM
CC1CCc2c(sc3ncnc(N4CCOCC4)c23)C1 (stereo unspecified) | 20.4 µM | 4.1 µM
CC1CCCCN1c1ncnc(N)c1[N+](=O)[O-] (stereo unspecified) | > 79 µM (inactive) | 3.66 µM
COc1ccc(-c2ccccc2[C@H]2[C@@H]3C=CC[C@@H](C)[C@@H]3C(=O)N2Cc2ccccc2)cc1 | 19.6 µM | 13.6 µM
NC(=O)N/N=C/c1c(Sc2nnnn2-c2ccccc2)nc2ccccn2c1=O | 6.87 µM | 0.653 µM
Nc1ncnc(N2CCc3ccccc32)c1[N+](=O)[O-] | 29.7 µM | 0.651 µM
O=C1OC(Nc2nc(-c3ccc(F)cc3)cs2)c2ccccc21 (stereo unspecified) | 10.7 µM | 2.31 µM
COc1cccc(NC(=O)Nc2nnc(CC(=O)Nc3ccccc3)s2)c1 | 55.8 µM (inactive) | 4.89 µM
COc1cc(OC)cc(C(=O)N[C@H](C(=O)Nc2nc3ccccc3[nH]2)C(C)C)c1 | 41.1 µM | inactive
COc1ccc(-n2c(C)c(C(C)=O)c3cc(O)ccc32)cc1 | > 79 µM (inactive) | 0.308 µM
CCCCCc1cc(O)c2c(C)cc(=O)oc2c1 | 7.62 µM | 4.83 µM
CN(C)c1ccc(Nc2ncnc3ccc(Br)cc23)cc1 | 15.9 µM | 1.66 µM
COc1ccc(C2CNC(=O)C2)cc1OC1CCCC1 (stereo unspecified) | 40.7 µM | 11.3 µM
Cc1cccc(N2CCN(C(=O)c3[nH]c(C(F)(F)F)nc3-c3ccccc3)CC2)c1C | > 79 µM (inactive) | 17.8 µM
Cc1cccc2sc(N(CCCN(C)C)C(=O)CCS(=O)(=O)c3ccccc3)nc12 | 7.52 µM | 3.22 µM

Structure (SMILES) | IC50 (Cytotoxicity) | IC50 [1]
O=C(c1nnsc1S(=O)(=O)c1ccc(Cl)cc1)N1CCOCC1 | 9.67 µM | 3.85 µM
CCCCCOC(=O)c1[nH]c2c(c1C)C(=O)CC(c1ccco1)C2 (stereo unspecified) | > 79 µM (inactive) | 10.8 µM
NC(=S)N1OC[C@@H]2COc3ccc4ccccc4c3[C@@H]21 | 31.2 µM | 4.75 µM
Cc1ccc(S(=O)(=O)Nc2cccc3cccnc23)c([N+](=O)[O-])c1 | > 79 µM (inactive) | 2.84 µM
CCOC(=O)c1[nH]c2c(c1C)C(=O)CC(c1ccco1)C2 (stereo unspecified) | > 79 µM (inactive) | inactive
Cc1ccc(S(=O)(=O)/N=C(\CCl)N2CCOCC2)cc1 | 9.62 µM | 2.38 µM
C=CC[C@@H](CC(=O)N[C@H](CO)Cc1ccccc1)C(=O)NC[C@H](OC(=O)[C@@H](CC=C)Cc1ccc(F)cc1)c1ccccc1 | 8.91 µM | 5.6 µM
NC(c1csc(NC(=O)Nc2cccc(Cl)c2)n1)c1ccccc1Cl (stereo unspecified) | 21.7 µM | 7.54 µM
CNc1ccc2ncc(-c3ccc(OC)c(OC)c3)n2n1 | 15.8 µM | 0.535 µM
Clc1ccc(CSc2nnc(-c3ccncc3)o2)cc1 | > 79 µM (inactive) | 5.92 µM
Cc1ccc(S(=O)(=O)CC(CN2CCCCC2)N2CCCCC2)cc1 (stereo unspecified) | 33.3 µM | 6.85 µM
COc1cc(CCc2ccccc2)c(C(=O)O)c(O)c1C/C=C(/C)CCC=C(C)C | 14.7 µM | 6.26 µM
COc1cccc(NC(=O)CN(C)CC(=O)Nc2ccc(C)c([N+](=O)[O-])c2)c1 | > 79 µM (inactive) | 6.21 µM
Cc1ccnc(NC(=O)CSc2cc(=O)n(C)c3ccccc23)c1 | 39.4 µM | 7.95 µM
Cc1ncc(CC(=O)n2cc(C(=O)c3cc(Cl)ccc3O)cn2)s1 | 44.5 µM | 7.56 µM
C=C1C(C)C2C(Cc3ccccc3)NC(=O)C23OC(=O)/C=C/C(O)CCCC(C)C/C=C/C3C1O (stereo unspecified) | 2.32 µM | 1.25 µM
CC(C)(C)c1nc(NC(=O)Nc2ccccc2)sc1Br | 12.6 µM | 6.59 µM
COc1cc2c(c(OC)c1O)-c1ccc(OC)c(=O)cc1C(NC(=O)C(F)(F)F)CC2 (stereo unspecified) | > 79 µM (inactive) | > 79 µM (inactive)
Cn1c(SC2=CS(=O)(=O)c3ccccc32)nc2ccccc21 | 7.01 µM | 1.83 µM
O=C1Nc2ccccc2/C1=C/c1ccnc2ccccc12 | 36.3 µM | 5.85 µM
CC(C)C[C@@H](CN1CCC[C@@H]1CN1C(=S)NC[C@@H]1Cc1ccc(O)cc1)N1C[C@H](Cc2ccc(O)cc2)N(CC2CCCCC2)C1=S | 18.8 µM | 17 µM

Structure (SMILES) | IC50 (Cytotoxicity) | IC50 [1]
Brc1cccc(CSc2nnc(-c3ccncc3)o2)c1 | > 79 µM (inactive) | 6.88 µM
COc1cc(NC(=O)c2cc3ccccc3cc2OC)ccc1NC(=O)c1cccs1 | 11 µM | 5.79 µM
CN(C)C=Nc1c(C(=O)c2ccccc2)sc2nccc(N(C)C)c12 | > 79 µM (inactive) | 10.9 µM
C/C(=N/NC(=O)c1cccs1)c1ccc(NC(=O)COc2ccc(Cl)cc2)cc1 | 26.5 µM | inactive
Cc1c([N+](=O)[O-])c2ccc(O)cc2n1-c1ccccc1 | 26.2 µM | 0.851 µM
CC1(O)CC(c2ccc(Cl)cc2)=NN1C(=O)c1ccc(Cl)cc1 (stereo unspecified) | 14 µM | 5.49 µM
CCOC(=O)Nc1nc(-c2ccccc2)c(C(=O)c2ccccc2)s1 | > 79 µM (inactive) | 14.3 µM
Cc1ccc(CNc2ncnc(N)c2[N+](=O)[O-])cc1 | 73.3 µM (inactive) | 6.41 µM
CNC(=O)c1ccc(NC(=O)C2CCN(c3ncnc4sc(C)c(C)c34)CC2)cc1 | > 79 µM (inactive) | 5.49 µM
CC(=O)c1c(O)cc2c3c1OC(C)(C)C1CCC(C)(CC31)O2 (stereo unspecified) | 53.5 µM (inactive) | 2.73 µM
CC(=O)Oc1ccc(N(C(C)=O)S(=O)(=O)c2ccc(Cl)cc2)c2ccccc12 | 22.8 µM | 7.37 µM
Cc1ccc(NC(=O)c2nc[nH]c2C(=O)NCCCNC(=O)c2[nH]cnc2C(=O)Nc2ccc(C)cc2)cc1 | 14 µM | 3.82 µM
CN(Cc1ccco1)c1ncnc2ccc(-c3ccoc3)cc12 | 50.9 µM (inactive) | 8.08 µM
CC1=C(/C=C/C(C)=C/C=C/C(C)=C\C(=O)O)C(C)(C)CCC1 | > 79 µM (inactive) | 0.64 µM
CC(C)(C)C(=O)/C(=C/c1ccncc1)n1cncn1 | 15.1 µM | 2.22 µM
COc1ccccc1NC(=O)c1cc2c(CO)cnc(C)c2oc1=Nc1ccc(OC)c(OC)c1 | 12.2 µM | 9.49 µM
NC(N)=NN=C(c1ccc(F)cc1)c1ccc(C(F)(F)F)cc1 | 25.3 µM | 5.87 µM
COc1ccccc1NS(=O)(=O)c1cccc(-n2c(O)c(C=Nc3ccccc3C(=O)O)c3ccccc3c2=O)c1 | 37.1 µM | 5.54 µM
Cc1nc2sc(C(N)=O)c(N)c2c(C)c1CC(=O)c1ccccc1 | > 79 µM (inactive) | 10.7 µM
C=CCn1cnc2c(c1=O)c1nc3ccccc3nc1n2/N=C/c1cc(OC)c(OC)c(OC)c1 | 5.94 µM | 4.18 µM
O=C(NCc1nc(-c2ccc(C(F)(F)F)cc2)no1)Nc1cc(Cl)cc(Cl)c1 | 5.56 µM | 5.81 µM
